These are literature values, as cited in patent US8679552B2, “Acne vulgaris treatment regimen” (priority 2008, dated 2014).

Data set [1] has as its system 5 alpha-reductase.
The subject of data set [2] is gram-positive bacteria.
The test system of data set [3] is comedones. Conditions: topical.
Data set [4] addresses T1, type-1 5 alpha-reductase (Homo sapiens, UniProt P18405).
T1 sequence (P18405 1-259): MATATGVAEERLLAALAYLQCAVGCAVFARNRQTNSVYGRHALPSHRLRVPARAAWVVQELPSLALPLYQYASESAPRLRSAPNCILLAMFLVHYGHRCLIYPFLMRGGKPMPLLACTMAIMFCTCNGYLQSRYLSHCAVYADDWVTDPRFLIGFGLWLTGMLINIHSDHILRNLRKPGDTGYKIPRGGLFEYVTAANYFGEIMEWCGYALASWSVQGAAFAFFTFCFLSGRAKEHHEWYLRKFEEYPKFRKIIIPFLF

Data set [5] has as its system skin irritation. Conditions: concentrations of 5%, three to four week period.
The test system of data set [6] is 17-beta-hydroxysteroid dehydrogenase.
Data set [7] deals with 5 alpha-reductase. The source holds these as a separate data set.

As for `O=C(O)CCCCCCCC(=O)O` [Azelaic acid], in data set [1], the “concentration at which effective / potent 5 alpha-reductase inhibitor” value is no less than 0.2 milliMolar and the “concentration that is completely inhibitory of 5 alpha-reductase” value is 3 milliMolar.

Regarding `CC1=C(/C=C/C(C)=C/C=C/C(C)=C/C=O)C(C)(C)CCC1` [Retinaldehyde], the “in vitro antibacterial activity against gram-positive bacteria” value in data set [2] was “significant in vitro antibacterial activity”. The “effectiveness at preventing comedones” value in data set [3] (concentration of 0.1%) is on record as “as effective at preventing comedones as other topical vitamin A products”. On to `Cc1ncc(CO)c(CO)c1O.Cl` [Vitamin B6, Pyridoxine hydrochloride], for which the “increase in the inhibition of 5 alpha-reductase” value in data set [1] (Vitamin B6 (0.025%) added to zinc sulfate (1.5 to 3 milliMolar/liter)) is given as “two fold increase”. Turning to `[Zn+2]` [Zinc cation], in data set [1] (high concentrations), the “inhibition of 5 alpha-reductase enzyme activity at high concentrations” value was “completely inhibiting the enzyme activity”. As for `O=C1c2ccccc2C(=O)c2c1ccc(O)c2O` [alizarin], the “inhibition of type-1 5 alpha-reductase” value in data set [4] is given as “potent inhibitors”. Turning to `Oc1ccc2c(O)c3ccccc3cc2c1O` [anthrarobin], in data set [4], the “inhibition of type-1 5 alpha-reductase” value is “potent inhibitors”.

For `O=c1cc(-c2ccccc2)oc2cc(O)c(O)c(O)c12` [baicalein], in data set [4], the “inhibition of type-1 5 alpha-reductase” value was “potent inhibitors”.

On to `O=C(/C=C/c1ccc(O)c(O)c1)OCCc1ccccc1` [caffeic acid phenethyl ester], for which the “inhibition of type-1 5 alpha-reductase” value in data set [4] is on record as “potent inhibitors”. Turning to `CC(C)(CO)[C@@H](O)C(=O)NCCCO` [dexpanthenol], the “symptoms of skin irritation (dryness, roughness, scaling, pruritis, erythema, erosion/fissures)” value in data set [5] is listed as “considerably improves”.

In the case of `O=C1OC[C@H](Cc2cccc(O)c2)[C@H]1Cc1cccc(O)c1` [enterolactone], in data set [1], the “5 alpha-reductase inhibitory activity” value is listed as “most potent inhibitor”.

`O=c1c(O)c(-c2ccc(O)c(O)c2)oc2cc(O)ccc12` [fisetin]: the “inhibition of type-1 5 alpha-reductase” value in data set [4] is “potent inhibitors”.

Turning to `CC1(C)[C@@H](O)CC[C@]2(C)[C@H]3C(=O)C=C4[C@@H]5C[C@@](C)(C(=O)O)CC[C@]5(C)CC[C@@]4(C)[C@]3(C)CC[C@@H]12` [glycyrrhetinic acid], the “concentration which suppresses 17-beta-hydroxysteroid dehydrogenase activity” value in data set [6] is reported as no less than 4 microMolar. Consider `CCCCCCCCCCCCOC(=O)c1cc(O)c(O)c(O)c1` [lauryl gallate], for which the “inhibition of type-1 5 alpha-reductase” value in data set [4] was “potent inhibitors”. For the compound `CC(Cc1ccc(O)c(O)c1)C(C)Cc1ccc(O)c(O)c1` (stereo not drawn) [nordihydroguaiaretic acid], in data set [4], the “inhibition of type-1 5 alpha-reductase” value was “potent inhibitors”. For `CCCCCCCCOC(=O)c1cc(O)c(O)c(O)c1` [octyl gallate], the “inhibition of type-1 5 alpha-reductase” value in data set [4] is on record as “potent inhibitors”.

Regarding `O=c1c(O)c(-c2ccc(O)c(O)c2)oc2cc(O)cc(O)c12` [quercitin], in data set [4], the “inhibition of type-1 5 alpha-reductase” value is “potent inhibitors”.

As to `O=C(O)c1ccccc1O` [salicylic acid, Salicylic acid], in data set [3] (concentrations of 0.5% to 2.0%), the comedolytic effect result is recorded as “moderately comedolytic”.

In the case of epigallocatechin 3-gallate [EGCG], the “inhibition of 5 alpha-reductase in whole-cell assay systems” value in data set [7] is “not in whole-cell assay systems”. Also, the “inhibition of 5 alpha-reductase in cell-free assay systems” value in data set [1] (cell-free) is on record as “potent inhibition”.
